Source: publication PMC7037305 (2020)

Columns and labels:
[1] = system: c-myc (DNA, G4) TGAGGGTGGGGAGGGTGGGGAA; assay: CD melting at 263 nm; conditions: 5 mM KCl; 50 mM Tris-HCl pH 7.4; 4.5 μM compound, 1.5 μM DNA
[2] = system: Telomere G1 (DNA, G4) TAGGGTTAGGGTTAGGGTTAGGG; assay: CD melting at 288 nm; conditions: 100 mM KCl, 50 mM Tris-HCl pH 7.4, 4.5 μM compound, 1.5 μM DNA
[3] = system: Telomere G1 (DNA, G4) TAGGGTTAGGGTTAGGGTTAGGG; assay: ITC; conditions: K+ (50 mM KH2PO4-K2HPO4); potassium phosphate buffer pH 7.0, 25 °C, dilute condition without PEG200
[4] = system: c-myc (DNA, G4) TGAGGGTGGGGAGGGTGGGGAA; assay: ITC; conditions: K+ (50 mM KH2PO4-K2HPO4); potassium phosphate buffer pH 7.0, 25 °C, dilute condition without PEG200

| Structure (SMILES) | ΔTm [1] [°C] | ΔTm ([2]; derived from two Tm (79, 65)) [°C] | Ka [3] [M⁻¹] | Ka [4] [M⁻¹] | ΔTm ([2]; derived from two Tm (70.5, 65)) [°C] | ΔTm ([2]; derived from two Tm (73.5, 65)) [°C] |
| --- | --- | --- | --- | --- | --- | --- |
| CN1CCCNC(=O)c2cccc(c2)C(=O)NCCCN(C)CCCN2C(=O)c3ccc4c5c(ccc(c35)C2=O)C(=O)N(CCC1)C4=O | > 15 | 14 | 2.2e+06 | 2.4e+06 | – | – |
| CN1CCCNC(=O)CCCC(=O)NCCCN(C)CCCN2C(=O)c3ccc4c5c(ccc(c35)C2=O)C(=O)N(CCC1)C4=O | > 15 | – | 3.4e+06 | 1.1e+06 | 5.5 | – |
| CN1CCCNC(=O)CC2(CCCCC2)CC(=O)NCCCN(C)CCCN2C(=O)c3ccc4c5c(ccc(c35)C2=O)C(=O)N(CCC1)C4=O | > 15 | – | 1.5e+06 | 6.2e+06 | – | 8.5 |
